Results taken from patent publication US12674038B2, “Composition and method for microbial control for use with polymers” (MICROBAN PRODUCTS COMPANY, priority 2022, dated 2026).

System: Escherichia coli (gram-negative bacteria)
Assay: Antimicrobial efficacy of polymer samples against Escherichia coli, ISO22196 test method
Conditions: E. coli

Q: For `O=C(O)c1ccccc1` [GBA, benzoic acid], which “log reduction (consistent antimicrobial efficacy)” value (5250 ppm level in TPU) is on record?
A: > 1

Q: And the log reduction (TPU, 4500 ppm GBA alone)?
A: less than 1
